As a reminder, the IC50 is the concentration that gives 50% inhibition. Read a high IC50 as weaker potency in that assay. As usually defined, the MIC is the least concentration at which growth counts as inhibited.

Values after ≈ are worked out from the molar mass of the structure shown. Values joined by “and” are separate entries in the source; they are usually repeats but may differ in a detail not shown here. Equal values may be shown once. Read-outs that look alike come from different tables or passages of the source. Where only a bound is given, the exact number is not on record here.

Here are results for two compounds from patent US20180312473A1, “PHENAZINE DERIVATIVES AS ANTIMICROBIAL AGENTS” (priority 2015, published 2018).

Data set [1] deals with MRSA-2 planktonic cells and biofilms. Put plainly: Calgary Biofilm Device (CBD) assay, MBC/MBEC. The following applies: for MBC: Staphylococcus aureus, MRSA. It is filed as cell-based, Staphylococcus aureus.
A further data set has as its system HeLa cells. Description: in vitro. Type of data set: cell-based.
A further data set can be described thus: in vitro. It is filed as cell-based. Conditions: human.
Data set [2] relates to MRSA-2 (methicillin-resistant Staphylococcus aureus clinical isolate). Put plainly: MIC assay (broth microdilution, CLSI). It is filed as cell-based. Conditions: Staphylococcus aureus, MRSA, read-out: MIC, MRSA-2.
Another data set deals with P. aeruginosa (PAO1). Put plainly: MIC assay (broth microdilution, CLSI). It is filed as cell-based. Conditions: Pseudomonas aeruginosa, PAO1; read-out: PAO1 MIC. For orientation: Broth dilution looks for growth in wells or tubes with falling amounts of substance.
Data set [3] deals with MRSA BAA-1707 planktonic cells and biofilms. Put plainly: Calgary Biofilm Device (CBD) assay, MBC/MBEC. Conditions: Staphylococcus aureus, read-out: MRSA BAA-1707 MBC.
The test system of a further data set is E. coli UAEC-1. Put plainly: MIC assay (broth microdilution, CLSI). It is filed as cell-based. Conditions: Escherichia coli, UAEC1; read-out: E. coli UAEC-1 MIC.
Data set [4] is described as follows: Aqueous solubility under MIC assay conditions. It is filed as physicochemical. Conditions: MIC assay media, 37 °C, aqueous buffer; read-out: [aq. soluble].
The test system of a further data set is K. pneumoniae 13883. Description: MIC assay (broth microdilution, CLSI). It is filed as cell-based, Klebsiella pneumoniae. Conditions: Klebsiella pneumoniae, 13883; read-out: K. pneumoniae 13883 MIC.
Data set [5] relates to S. aureus clinical isolate SA 156. Description: MIC assay (broth microdilution, CLSI). The following applies: Staphylococcus aureus, read-out: MIC, SA 156.
Data set [6] has as its system MRSA-2 persister cells (stationary cultures). The following applies: 12.5 μM; reduction of viable cells over 24 h; listed as 214.
The test system of data set [7] is Staphylococcus epidermidis (ATCC 12228). Put plainly: MIC assay (broth microdilution, CLSI). It is filed as cell-based. The following applies: Staphylococcus epidermidis, ATCC12228; Table 7; b lowest concentration tested; read-out: MIC, S. epidermidis 12228.
The test system of data set [8] is MRSA biofilms (MRSA-2, BAA-1707, BAA-44). Description: Calgary Biofilm Device assay, values summarised over MRSA strains.
The subject of data set [9] is MRSA-2 persister cells (stationary cultures). Description: microbe, parasite or virus in culture. Conditions: Staphylococcus aureus, 24 h, read-out: reduction of viable stationary MRSA-2 cells.
Data set [10] has as its system S. aureus clinical isolate SA 147. Description: MIC assay (broth microdilution, CLSI). Conditions: Staphylococcus aureus, read-out: MIC, SA 147.
The test system of the next data set is MRSA BAA-44. Description: MIC assay (broth microdilution, CLSI). The following applies: Staphylococcus aureus, read-out: MIC, MRSA BAA-44.
The next data set relates to MRSE 35984 biofilms. Put plainly: Live/Dead staining (fluorescence microscopy) of MRSE 35984 biofilms. It is filed as cell-based, Staphylococcus epidermidis. The following applies: 24 h. The protocol:
In addition to Calgary Biofilm Device experiments, we evaluated select HPs against staphylococcal biofilms in live/dead staining experiments. HP 14 was added to 24 hour old MRSE biofilms at 0.1, 1, and 10 μM and allowed to incubate at 37° C. for an additional 24 hours. Following this, images of the treated and untreated S. epidermidis biofilm were taken using fluorescence microscopy (FIG. 11).
A mid-log culture of MRSE […] was diluted 1:1,000-fold and 500 μL was transferred to each compartment of a 4 compartment CELLview dish (Greiner Bio-One 627871). The dish was then incubated for 24 hours at 37° C. After this time, the cultures were removed and the plate was washed with 0.9% saline. The dish was then treated with the compounds in fresh media at various concentrations. DMSO was used as our negative control in this assay. The dish was incubated with the compound for 24 hours at 37° C. After this time, the cultures were removed and the dish was washed with 0.9% saline for 2 minutes. Saline was then removed and 500 μL of the stain (Live/Dead BacLight Viability Kit, Invitrogen) were added for 15 minutes and left in the dark. After this time, the stain was removed and the dish was washed twice with 0.9% saline. Then the dish was fixed with 500 μL 4% paraformaldehyde in PBS for 30 minutes. Images of remaining MRSE biofilms were then taken with a fluorescence microscope. All data were analyzed using IMAGE J software.

Data set [11] relates to S. aureus clinical isolate SA 129. Put plainly: MIC assay (broth microdilution, CLSI). Conditions: Staphylococcus aureus, read-out: MIC, SA 129.
The mark [12] stands for this setting: Table 5, a/b midpoint of 2-/4-fold range, read-out: MRSA-2 MBC.
Setting [13] is: Table 8, a/b 2-/4-fold range in independent experiments, read-out: MRSA-2 MBC.
Setting [14] is: Table 2B, a midpoint of 2-fold range, * partial growth inhibition at highest concentration.
The mark [15] stands for this setting: Table 7, a midpoint of 2-fold range, b lowest concentration tested.
[16] abbreviates: viable biofilm cell count from CBD peg.

On to `Oc1ccc(I)c2nc3cc(Cl)c(Cl)cc3nc12` [Compound 12, 7,8-Dichloro-4-iodo-1-hydroxyphenazine], for which the MBC was 25 µM (≈ 9.77 µg/mL) in data set [1] (Table 4, read-out: MBC, MRSA-2); 25 µM (≈ 9.77 µg/mL) in data set [1] (setting [12]); 25 µM (≈ 9.77 µg/mL) in data set [1] (setting [13]); 75 µM (≈ 29.3 µg/mL) in [3]. This compound also showed an IC50 with HeLa cells (human, 24 h) above 100 µM. Moreover, in the data set “in vitro”, the IC50 at 24 h was above 100 µM. The minimum inhibitory concentration (MIC) in [2] (Table 2A) was 0.39 µM (≈ 0.152 µg/mL); in data set [2] (setting [14]), 0.39 µM (≈ 0.152 µg/mL); in data set [2] (setting [15]) it was 0.39 µM (≈ 0.152 µg/mL); in the data set with P. aeruginosa (PAO1), above 100 µM; in the data set on E. coli UAEC-1, above 100 µM; with K. pneumoniae 13883 it was above 100 µM. Besides, the solubility at 16 h in [4] turned out to be 200 µM (≈ 78.2 µg/mL).
For `Oc1c(Br)cc(I)c2nc3cc(Cl)c(Cl)cc3nc12` [Compound 14, 2-bromo-7,8-dichloro-4-iodo-1-hydroxyphenazine], the minimal inhibitory concentration (MIC) in data set [5] is 0.3 µM (≈ 0.141 µg/mL); in data set [7], 0.1 µM (≈ 0.047 µg/mL); in data set [10] it was 0.3 µM (≈ 0.141 µg/mL); in data set [2] (setting [14]) it was 3.13 µM (≈ 1.47 µg/mL); in data set [2] (setting [15]), 3.13 µM (≈ 1.47 µg/mL); with MRSA BAA-44, 3.13 µM (≈ 1.47 µg/mL). Moreover, in data set [11], the MIC worked out at 1.56 µM (≈ 0.733 µg/mL). The same compound gave an MRSA-2 stationary killing in [6] above 3 log. In data set [8], the “MBEC against MRSA biofilms” value is < 10 µM and 6.25 to 9.38 µM. Also, the MBC in data set [1] (setting [12]) and in [1] (setting [13]) was 3.13 µM (≈ 1.47 µg/mL) each time. Further, in [1] (setting [16]), the “persister cells eradicated within MRSA biofilms at the MBEC” value was above 99.9%. The “persister cells eradicated within MRSA-2 biofilms at the MBEC” value in data set [1] (setting [16]) is on record as above 3 log. The “HeLa cytotoxicity at 50 μM” value in the data set with HeLa cells is “no cytotoxicity was observed”; in the data set on HeLa cells (human, 24 h, 50 μM), “No HeLa cell death”. In the data set on HeLa cells (human, 24 h), this compound had an IC50 above 50 µM. In addition, the “HeLa cell death at 100 μM” value with HeLa cells (human, 24 h, 100 μM) is reported as around 70%. The IC50 at 24 h in the data set “in vitro” was above 50 µM. Besides, the inhibition at 12.5 µM in data set [9] is above 99.9%. In addition, the “effect on established MRSE biofilm (Live/Dead staining)” value in the data set on MRSE 35984 biofilms (0.1 μM) is recorded as “a significant amount of MRSE biofilm cells were eradicated, however, not cleared from within the biofilm”; in the data set with MRSE 35984 biofilms (1 μM), “a significant amount of the biofilm cells”; in the data set with MRSE 35984 biofilms (10 μM), “removed all detectable MRSE biofilm cells from the glass surface”. The solubility at 16 h in [4] is 200 µM (≈ 94 µg/mL).
